Test results published in ChEMBL document CHEMBL1149472, “Homobivalent quinazolinimines as novel nanomolar inhibitors of cholinesterases with dirigible selectivity toward butyrylcholinesterase” (J Med Chem, 2006).

Legend:
[1] = Selectivity for horse serum BChE over electric eel AChE
Acetylcholinesterase = Acetylcholinesterase (Electrophorus electricus, UniProt O42275); test: Inhibition of electric eel AChE
Butyrylcholinesterase = Butyrylcholinesterase (Equus caballus, UniProt Q9N1N9); test: Inhibition of horse serum BChE
[2] = read-out: -Log IC50 (converted)

Chain of Butyrylcholinesterase (Q9N1N9 whole entry): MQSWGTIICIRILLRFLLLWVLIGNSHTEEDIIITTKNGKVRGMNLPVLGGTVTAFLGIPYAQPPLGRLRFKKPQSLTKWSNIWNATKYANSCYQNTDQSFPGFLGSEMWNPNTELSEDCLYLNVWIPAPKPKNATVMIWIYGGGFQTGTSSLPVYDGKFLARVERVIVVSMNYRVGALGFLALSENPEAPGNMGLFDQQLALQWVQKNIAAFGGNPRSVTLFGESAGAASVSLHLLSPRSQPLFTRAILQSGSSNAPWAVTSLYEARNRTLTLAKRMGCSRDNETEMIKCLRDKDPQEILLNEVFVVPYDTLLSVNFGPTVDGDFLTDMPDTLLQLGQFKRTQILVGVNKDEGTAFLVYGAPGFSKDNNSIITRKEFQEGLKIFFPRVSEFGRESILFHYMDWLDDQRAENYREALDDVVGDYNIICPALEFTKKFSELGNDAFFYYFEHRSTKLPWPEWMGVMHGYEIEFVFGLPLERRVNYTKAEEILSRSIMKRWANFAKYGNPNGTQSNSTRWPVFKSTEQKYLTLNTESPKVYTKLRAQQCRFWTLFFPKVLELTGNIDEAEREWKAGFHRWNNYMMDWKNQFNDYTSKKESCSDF
Chain of Acetylcholinesterase (O42275 whole entry): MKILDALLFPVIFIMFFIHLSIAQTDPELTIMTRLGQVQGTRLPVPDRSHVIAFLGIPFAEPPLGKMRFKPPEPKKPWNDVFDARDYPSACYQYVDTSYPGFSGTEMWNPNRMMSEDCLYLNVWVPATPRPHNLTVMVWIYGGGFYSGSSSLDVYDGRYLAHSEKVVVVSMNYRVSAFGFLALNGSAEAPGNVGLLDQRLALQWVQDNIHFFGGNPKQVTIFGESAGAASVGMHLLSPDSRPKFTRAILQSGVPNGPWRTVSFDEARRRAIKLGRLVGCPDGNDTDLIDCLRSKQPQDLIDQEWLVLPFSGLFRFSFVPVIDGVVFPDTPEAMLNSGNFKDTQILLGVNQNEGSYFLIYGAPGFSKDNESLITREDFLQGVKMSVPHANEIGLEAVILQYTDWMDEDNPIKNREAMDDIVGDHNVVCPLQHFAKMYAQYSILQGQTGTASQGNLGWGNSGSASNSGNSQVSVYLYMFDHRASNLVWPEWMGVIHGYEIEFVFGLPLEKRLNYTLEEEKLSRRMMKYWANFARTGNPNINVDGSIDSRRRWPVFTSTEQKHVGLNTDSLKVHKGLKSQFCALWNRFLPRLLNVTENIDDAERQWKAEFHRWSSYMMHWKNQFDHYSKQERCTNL

| SMILES | Ratio IC50 [1] | IC50 (Acetylcholinesterase) [nM] | IC50 (Butyrylcholinesterase; read-out: IC50) [nM] | IC50 (Butyrylcholinesterase; [2]) [nM] |
| --- | --- | --- | --- | --- |
| Clc1ccc2c(c1)N=C1CCCN1C2NCCCCCCCC/N=c1/c2ccc(Cl)cc2nc2n1CCC2 (stereo unspecified) | 1.1 | 50.2 | 45.4 | – |
| c1ccc2/c(=N/CCCCCCCC/N=c3/c4ccccc4nc4n3CCCCC4)n3c(nc2c1)CCCCC3 | 98 | 1280 | 13 | – |
| N=c1c2ccccc2nc2n1CCCCCC2 | 4.9 | 14600 | 3000 | – |
| N=c1c2ccccc2nc2n1CCC2 | 1.8 | 13200 | 7200 | 716 |
| CC(=O)/N=c1/c2ccccc2nc2n1CCC2 | 0.6 | 115000 | 204000 | 428000 |
| c1ccc2/c(=N/CCCCCCCC/N=c3/c4ccccc4nc4n3CCCCCC4)n3c(nc2c1)CCCCCC3 | 189 | 14400 | 76 | – |
| c1ccc2/c(=N/CCCCCCCC/N=c3/c4ccccc4nc4n3CCCC4)n3c(nc2c1)CCCC3 | 4.9 | 37 | 7.6 | – |
| c1ccc2/c(=N/CCCCCCCC/N=c3/c4ccccc4nc4n3CCC4)n3c(nc2c1)CCC3 | 12 | 58 | 4.8 | – |
| CCCC/N=c1/c2ccc(Cl)cc2nc2n1CCC2 | 1.7 | – | 2300 | – |
| CCCC/N=c1/c2ccccc2nc2n1CCC2 | 1.7 | 9500 | 5500 | – |
| c1ccc2/c(=N/CCCCCCC/N=c3\c4ccccc4nc4n3CCC4)n3c(nc2c1)CCC3 | 0.9 | 79 | 88 | – |
| c1ccc2/c(=N/CCCCCCC/N=c3\c4ccccc4nc4n3CCCC4)n3c(nc2c1)CCCC3 | 9 | 77 | 8.5 | – |
| Clc1ccc2/c(=N/CCCCCCC/N=c3\c4ccc(Cl)cc4nc4n3CCC4)n3c(nc2c1)CCC3 | 1 | 59 | 61 | – |
| c1ccc2/c(=N/CCCCCCC/N=c3\c4ccccc4nc4n3CCCCCC4)n3c(nc2c1)CCCCCC3 | 2.4 | 65 | 27 | – |
| c1ccc2/c(=N/CCCCCCC/N=c3\c4ccccc4nc4n3CCCCC4)n3c(nc2c1)CCCCC3 | 1.6 | 40 | 24 | – |
